Test system: KRAS patient-derived spheroids with HUVEC/MSC, viability
Assay: Anticancer human tumor 323965-272-R-J2-PDC patient-derived pancreatic carcinoma cell line growth inhibition [KRAS2]
Conditions: for IC50: curve of first compound; for viability, T/C: stronger effect = lower value
Method in brief: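 KRAS-mutant tumor cells were grown as spheroids with HUVEC endothelial cells and human MSCs as stroma. Targeted agents were tested alone and with KRAS pathway inhibitors. Doses started at or near clinical Cmax, or 10 microM, descending half-log.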

[1] = second compound 0.1 µM, first compound 0.0316 µM
[2] = second compound 0.1 µM, first compound 0.1 µM
[3] = second compound 0.1 µM, first compound 0.316 µM
[4] = second compound 0.1 µM, first compound 1 µM
[5] = second compound 0.1 µM, first compound 3.16 µM
[6] = second compound 0.1 µM, first compound 10 µM
[7] = second compound 0.316 µM, first compound 0.0316 µM
[8] = second compound 0.316 µM, first compound 0.1 µM
[9] = second compound 0.316 µM, first compound 0.316 µM
[10] = second compound 0.316 µM, first compound 1 µM
[11] = second compound 0.316 µM, first compound 3.16 µM
[12] = second compound 0.316 µM, first compound 10 µM
[13] = second compound 1 µM, first compound 0.0316 µM
[14] = second compound 1 µM, first compound 0.1 µM
[15] = second compound 1 µM, first compound 0.316 µM
[16] = second compound 1 µM, first compound 1 µM
[17] = second compound 1 µM, first compound 3.16 µM
[18] = second compound 1 µM, first compound 10 µM
[19] = second compound 3.16 µM, first compound 0.0316 µM
[20] = second compound 3.16 µM, first compound 0.1 µM
[21] = second compound 3.16 µM, first compound 0.316 µM
[22] = second compound 3.16 µM, first compound 1 µM
[23] = second compound 3.16 µM, first compound 3.16 µM
[24] = second compound 3.16 µM, first compound 10 µM
[25] = second compound 10 µM, first compound 0.0316 µM
[26] = second compound 10 µM, first compound 0.1 µM
[27] = second compound 10 µM, first compound 0.316 µM
[28] = second compound 10 µM, first compound 1 µM
[29] = second compound 10 µM, first compound 3.16 µM
[30] = second compound 10 µM, first compound 10 µM
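Also: spheroids exposed to agents for 7 days.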
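For viability, T/C in this document: 100% = DMSO vehicle control viability.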

Row | Structure (SMILES) | IC50 (second compound 0.1 µM) | IC50 (second compound 0.316 µM) | IC50 (second compound 1 µM) | IC50 (second compound 3.16 µM) | IC50 (second compound 10 µM) | viability, T/C [1] | viability, T/C [2] | viability, T/C [3] | viability, T/C [4] | viability, T/C [5] | viability, T/C [6] | viability, T/C [7] | viability, T/C [8] | viability, T/C [9] | viability, T/C [10] | viability, T/C [11] | viability, T/C [12] | viability, T/C [13] | viability, T/C [14] | viability, T/C [15] | further results
1 | COc1cc(Nc2ncc3c(n2)-c2ccc(Cl)cc2C(c2c(F)cccc2OC)=NC3)ccc1C(=O)O + CNCc1ccccc1-c1csc(C(C)Nc2nc(C)nc3cc(OC)c(OC)cc23)c1 | 128 nM | 92.6 nM | 96.4 nM | > 10000 nM | < 31.6 nM | 80.2% | 52.9% | 32% | 39.3% | 55.5% | 63.5% | 78.8% | 50.2% | 33.6% | 35.6% | 52.3% | 55.2% | 85.6% | 51% | 31.9% | viability, T/C [16]: 37.9%; viability, T/C [17]: 51.1%; viability, T/C [18]: 60%; viability, T/C [19]: 88.2%; viability, T/C [20]: 36.9%; viability, T/C [21]: 17.9%; viability, T/C [22]: 39.5%; viability, T/C [23]: 63.3%; viability, T/C [24]: 64.6%; viability, T/C [25]: 0.29%; viability, T/C [26]: 0.17%; viability, T/C [27]: 0.16%; viability, T/C [28]: 0.2%; viability, T/C [29]: 0.35%; viability, T/C [30]: 0.26%
2 | COc1cc2nccc(Oc3ccc(NC(=O)C4(C(=O)Nc5ccc(F)cc5)CC4)cc3)c2cc1OC + CNCc1ccccc1-c1csc(C(C)Nc2nc(C)nc3cc(OC)c(OC)cc23)c1 | > 10000 nM | > 10000 nM | > 10000 nM | 4240 nM | < 31.6 nM | 91.7% | 99.3% | 110% | 101% | 85.2% | 87.2% | 87.2% | 88.7% | 100% | 93.2% | 91.4% | 82% | 105% | 99% | 102% | viability, T/C [16]: 101%; viability, T/C [17]: 92.6%; viability, T/C [18]: 72.7%; viability, T/C [19]: 95.4%; viability, T/C [20]: 91.8%; viability, T/C [21]: 92.2%; viability, T/C [22]: 91.6%; viability, T/C [23]: 66.5%; viability, T/C [24]: 1.54%; viability, T/C [25]: 0.33%; viability, T/C [26]: 0.3%; viability, T/C [27]: 0.27%; viability, T/C [28]: 0.75%; viability, T/C [29]: 0.33%; viability, T/C [30]: 0.34%

Reference: PubChem BioAssay AID1963869 (Molecular Pharmacology Branch, DTP, NCI, 2024)
